Experimental data reported in patent publication US5780242A, “Bioassay for the screening of ION channel active molecules” (priority 1995, dated 1998).
“Also recorded” adds a separate entry of the source. Where a name gives a salt, the structure may show the parent alone. Read-outs that look alike come from different tables or passages of the source.

Assays:
[1] = system: AChE preparation (sodium channel neuroreceptor); test: Circular dichroism bioassay at 222 nm: temperature-dependent helix-coil transition of the AChE/neuroreceptor preparation in presence of drug; type: binding, bovine; conditions: for molar ellipticity [θ] at 222 nm, 30° C. / molar ellipticity [θ] at 222 nm, 35° C. / molar ellipticity [θ] at 222 nm, 38° C. / stabilization of the alpha helix / prevention of the helical transition between 30° C. and 35° C.: pH 7.0; for temperature needed to elicit the helix-coil transition in presence of drug: versus preparation without drug; for stabilization of the alpha helix / prevention of the helical transition between 30° C. and 35° C.: fresh preparations
Experimental: (§1) A baseline of the solution is obtained using 222 nm without removing the cell after a run is begun to allow for thermal stabilization. Prior to adding the drug to the enzyme, a blank run consisting only of the drug at the same concentration used in the enzyme study is made. To obtain control data, temperature changes of 5 degrees centigrade in the neuroreceptor solution alone are made using a Forma water bath. Then the drug is added to a sample of the purified neuroreceptor solution, and the stabilizing effect of the drug on the temperature-related conformational changes is noted. All temperature runs are allowed to equilibrate for one hour before data is collected.
All studies are made in 1 mm, 5 mm and 2 mm cells using a Jouan Dichrograph II at 1×10^-5 O.D./mm sensitivity. The sample solution consists of 30 mM Na2 HPO4, pH 7.0, and the enzyme. Protein concentration is determined empirically and then measured by the Lowry method after the run. Lowry, et al., J Biol Chem, 193: 265-275 (1951). Samples are taken directly from G-200 fractions or DEAE-Cellulose fractions previously dialyzed against 30 mM Na2 HPO4, pH 7.0.
Thermal studies are carried out in the 10 mm cell. Care must be taken not to misplace the cell in the cell holder to avoid spectral changes. Additionally, since the absorption is affected by pressure, the ORD cell's glass stopper must be gently seated. for the thermal runs of Prep A, a micro-thermometer is used to record the temperature in the ORD cell after each spectral recording.
The routine consists of beginning a CD spectral scan followed by running each activity blank at that temperature using 3 minute reading intervals. The next CD spectral scan is made after recording the temperature in the ORD cell. The data recorded consists of duplicates of CD spectra with cell temperatures varying 5 degrees centigrade at 222 nm.
Pilocarpine, reagent grade, was used at 1.33×10^-6 M in the sample solutions.
A buffer solution of 20 mM Na2 HPO4, pH 7.0, gives minimal absorption problems in the range 300 nm to 195 nm. Enzyme solutions contain from 21 μg/ml to 31 μ/ml of protein in buffer. Total ORD cell volume is 3.0 ml.
A buffer solution of 30 Na2 HPO4, pH 7.0,gave minimal absorption problems in the range 300 nm to 195 nm. Enzyme solutions contained from 21 μg/ml to 31 μg/ml of protein in buffer. Total ORD cell volume was 3.0 ml. Drugs were added to ORD cells in 0.002 ml volumes in order to minimize dilution effects. A Roussel-Jouan Dichrograph 11 sensitive to 1×10^-5 dichroic absorption unit per recording mm was used with a 10 mm, strain free, quartz ORD cell (Pyrocell, New Jersey, U.S.A.).
(§2) Again CD spectra were obtained using the above thermal apparatus over the range of 230 nm to 215 nm. A baseline of the enzyme solution was obtained using 300 nm to 285 nm without removing the cell after a run was begun. Prior to adding the drug to the enzyme, a blank run consisting only of the drug at the same concentration used in the enzyme study was made. To obtain control data, temperature changes in the enzyme solution alone were made using a Forma water bath. Then the drug was added to another enzyme solution with the same protein concentration which came from the stock solution, and temperature effects were noted. All temperature runs were allowed to equilibrate for one hour before data were collected.
Data for CD was expressed so that experimental values could be compared with published helix composition values. All graphs and raw data were expressed as molar el lipticity [.THETA.] based on mean residue molecular weight because the true molecular weight of AChE has not been established for the brain enzyme.

[2] = Circular dichroism blank run of the drug alone; type: physicochemical; conditions: for ellipticity of drug alone: 215 nm to 230 nm / 222 nm; for molar ellipticity [θ] of drug alone, 30° C.: no enzyme, 222 nm
Experimental: as §1, §2

[3] = local anesthesia; cited from earlier work
[4] = cited from earlier work
[5] = target: AChE (Bos taurus, UniProt P23795); test: Salt study: effect of MgSO4 on AChE of Prep E (AChE activity and CD helix); type: biochemical, bovine
Experimental: An AChE preparation (Prep E) was made using the scheme of S. L. Chan, supra "Purification of Beef Brain Acetylcholinesterase" Proceedings of the Western Pharmacology Society, 13:43-47, 1970. The AChE in 0.4M NaCl/[…] Na2 HPO4 was lyophilized and resuspended in 2.5 ml deionized water. The CD spectrum was made, and activity was checked qualitatively. The sample was dialyzed against 100 mM MgSO4 for 12 hours. AChE activity was qualitatively checked with CD. The sample was then redialyzed against 0.4M NaCl/30 mM Na2 HPO4 for 12 hours, checked for AChE activity and for CD absorption.
Activity of AChE was determined at 25° C.-30° C. and pH 8.0 by the spectrophotometric method of Ellman et al (Biochemical Pharmacology, 7:88-95 (1961). Measurements were made in the Hitachi Perkin-Elmer Model 139 spectrophotometer at 412 nm and 0.1 nm slit. One unit of AChE activity was defined as 1 μM of ATC (acetyl thiocholine iodide,Sigma) hydrolyzed per hour at 25° C. Specific activity is expressed as μmoles ATC hydrolyzed/ mg protein/ hour.

[6] = rats; cited from earlier work
[7] = mice; cited from earlier work
[8] = 7 Day old AChE with drug, 222 nm
[9] = AChE Prep B (7 Days Later) plus drug 1.33×10^-6 M, 222 nm
[10] = AChE Prep B (7 Days Later) plus drug 1.33×10^-6 M
[11] = AChE Prep B (7 Days Later), 222 nm
[12] = Fresh AChE (Prep C) plus drug 1.33×10^-6 M, 222 nm
[13] = Fresh AChE (Prep C) plus drug 1.33×10^-6 M
[14] = Fresh AChE (Prep B) plus drug 1.33×10^-6 M

Chain of AChE (P23795 31-613): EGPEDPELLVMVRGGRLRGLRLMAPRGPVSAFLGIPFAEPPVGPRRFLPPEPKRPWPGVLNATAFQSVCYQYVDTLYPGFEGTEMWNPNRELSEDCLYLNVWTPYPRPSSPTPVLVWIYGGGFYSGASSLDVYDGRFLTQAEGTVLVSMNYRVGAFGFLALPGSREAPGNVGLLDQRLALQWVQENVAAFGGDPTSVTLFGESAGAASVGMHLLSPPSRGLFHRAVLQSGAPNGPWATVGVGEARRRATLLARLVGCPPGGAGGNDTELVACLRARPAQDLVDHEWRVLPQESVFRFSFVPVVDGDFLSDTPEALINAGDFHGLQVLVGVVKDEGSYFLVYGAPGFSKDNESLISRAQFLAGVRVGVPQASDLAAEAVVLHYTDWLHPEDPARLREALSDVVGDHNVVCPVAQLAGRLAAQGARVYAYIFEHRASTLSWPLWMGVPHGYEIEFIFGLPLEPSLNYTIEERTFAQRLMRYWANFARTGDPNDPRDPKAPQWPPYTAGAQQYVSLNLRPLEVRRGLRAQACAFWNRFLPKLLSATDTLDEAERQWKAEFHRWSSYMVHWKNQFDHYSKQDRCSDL

What does the source list for `CCN(CC)CC(=O)Nc1c(C)cccc1C` [Lidocaine, Lidocaine hydrochloride monohydrate]?
% Loss of Helix (30° C. to 35° C.) [1, 8]: 16.8%; [θ]30 - [θ]35 [1, 9]: 600; molar ellipticity [θ] at 222 nm, 30° C. [1, 10]: -3,590; Difference of Lidocaine from Above AChE, 30° C. [1, 11]: +540; Difference of Lidocaine from Above AChE, 35° C. [1, 11]: +480; [θ]30 - [θ]35 [1, 12]: 100; [θ]38 - [θ]35 [1, 12]: 770; molar ellipticity [θ] at 222 nm, 30° C. [1, 13]: -5,560; molar ellipticity [θ] at 222 nm, 35° C. [1, 13]: -5,500; molar ellipticity [θ] at 222 nm, 38° C. [1, 13]: -4,830; % Loss of Helix (30° C. to 35° C.) ([1]; Fresh AChE with drug, 222 nm): 1.8%; % Loss of Helix (35° C. to 40° C.) ([1]; Fresh AChE with drug, 222 nm): 13.6%; temperature needed to elicit the helix-coil transition in presence of drug [1]: Higher temperatures were necessary; ellipticity of drug alone [2]: no ellipticity; duration of effective action [3]: 1 to 2 h; allergic reactions ([4]; compared with procaine): fewer known allergic reactions than procaine; side effect ([4]; in vivo): drowsiness

What does the source list for `O=S(=O)([O-])[O-].[Mg+2]` [MgSO4]?
random coil at 195 nm ([5]; AChE Prep E in 100 mM MgSO4, CD): 35%; AChE Qualitative Activity ([5]; Prep E dialyzed against 100 mM MgSO4 for 12 hours): 0; Helix 220 nm ([5]; Prep E dialyzed against 100 mM MgSO4 for 12 hours, CD): 16 mm

With `CN1CCCC1c1cccnc1` (stereo not drawn) [Nicotine] as the molecule, how does the “molar ellipticity [θ] of drug alone, 30° C.” value [2] read?
Its value is -21,400.

What does the source list for `CC[C@@H]1C(=O)OC[C@@H]1Cc1cncn1C` [Pilocarpine]?
% Loss of Helix (30° C. to 35° C.) [1, 8]: 20.7%; [θ]30 - [θ]35 [1, 9]: 720; molar ellipticity [θ] at 222 nm, 30° C. [1, 10]: -3,590; molar ellipticity [θ] at 222 nm, 35° C. [1, 10]: -2,280; [θ]30 - [θ]35 ([1]; Fresh AChE (Prep B) plus drug 1.33×10^-6 M, 222 nm): 800; molar ellipticity [θ] at 222 nm, 30° C. [1, 14]: -11,300; molar ellipticity [θ] at 222 nm, 35° C. [1, 14]: -10,500; [θ]30 - [θ]35 [1, 12]: 170; [θ]38 - [θ]35 [1, 12]: 780; molar ellipticity [θ] at 222 nm, 30° C. [1, 13]: -4,490; molar ellipticity [θ] at 222 nm, 35° C. [1, 13]: -4,320; molar ellipticity [θ] at 222 nm, 38° C. [1, 13]: -3,540; % Loss of Helix (30° C. to 35° C.) ([1]; Fresh AChE with drug, 222 nm): 7.1%; % Loss of Helix (35° C. to 40° C.) ([1]; Fresh AChE with drug, 222 nm): 17.5%; stabilization of helix in preparations not freshly prepared ([1]; enzyme preparations more than one week old / not freshly prepared): not observed; also recorded: will not be protected; stabilization of the alpha helix / prevention of the helical transition between 30° C. and 35° C. ([1]; 222 nm): appear to stabilize the helix; stabilization of the alpha helix / prevention of the helical transition between 30° C. and 35° C. ([1]; 222 nm, listed as pilocarpine): prevent the helical transition; temperature needed to elicit the helix-coil transition in presence of drug [1]: Higher temperatures were necessary; ellipticity of drug alone [2]: positive ellipticity; molar ellipticity [θ] of drug alone, 30° C. [2]: +5,450

For `CCCCN1CCCCC1C(=O)Nc1c(C)cccc1C` (stereo not drawn) [bupivacaine], which “duration of effective action” value [3] is on record?
Its value is 4 to 18 h.

Which “duration of effective action” value [3] does the source give for `CCCN(CC)C(CC)C(=O)Nc1c(C)cccc1C` (stereo not drawn) [etidocaine] here?
The value was 4 to 18 h.

With `Cc1cccc(C)c1NC(=O)C1CCCCN1C` (stereo not drawn) [mepivacaine] as the molecule, how does the “duration of effective action” value [3] read?
Its value is 2 to 3 h.

What about the onset of action [3] of the same molecule?
The onset of action was “rapid”.

For `Cc1ccccc1N` [ortho-toliudine], which carcinogenicity [6] is on record?
Its carcinogenicity is “carcinogenic”.

And the carcinogenicity [7]?
The carcinogenicity was “carcinogenic”.

Which “duration of effective action” value [3] does the source give for `CCCNC(C)C(=O)Nc1ccccc1C` (stereo not drawn) [prilocaine] here?
The value was 2 to 3 h.

What about the side effect ([4]; doses greater than 400 mg) of the same molecule?
Its side effect is “methemoglobinemia”.

What about the side effect ([4]; in vivo) of the same molecule?
The side effect was “drowsiness”.

With `CCN(CC)CCOC(=O)c1ccc(N)cc1` [procaine] as the molecule, how does the “duration of effective action” value [3] read?
The value was 1 to 2 h.
